Laboratory results as given in ChEMBL document CHEMBL1149281, “Structure-activity relationship of 6-methylidene penems bearing tricyclic heterocycles as broad-spectrum beta-lactamase inhibitors: crystallographic structures show unexpected binding of 1,4-thiazepine intermediates” (J Med Chem, 2004).
pIC50: −log10 of the molar value.

How the values were obtained:
Enterobacter cloacae [1] = assay: Antimicrobial activity against Enterobacter cloacae GC 2071 expressing Imi1 and AmpC in presence of 4 ug/mL piperacillin; type: functional
Escherichia coli [2] = assay: Antimicrobial activity against Escherichia coli GC 2203 in presence of 4 ug/mL piperacillin; type: functional
Escherichia coli [3] = assay: Antimicrobial activity against Escherichia coli GC 2847 expressing TEM1 in presence of 4 ug/mL piperacillin; type: functional
Escherichia coli [4] = assay: Antimicrobial activity against Escherichia coli GC 2252 expressing IRT2 in presence of 4 ug/mL piperacillin; type: functional
Pseudomonas aeruginosa = assay: Antimicrobial activity against Pseudomonas aeruginosa GC 1764 expressing AmpC in presence of 4 ug/mL piperacillin; type: functional
Klebsiella pneumoniae = assay: Antimicrobial activity against Klebsiella pneumoniae GC 2825 in presence of 4 ug/mL piperacillin; type: functional
Escherichia coli [5] = assay: Antimicrobial activity against Escherichia coli GC 2920 expressing IRT2 in presence of 4 ug/mL piperacillin; type: functional
Enterobacter cloacae [6] = assay: Antimicrobial activity against Enterobacter cloacae GC 1477 expressing AmpC in presence of 4 ug/mL piperacillin; type: functional
Beta-lactamase SHV-1 = molecular target: T1, Beta-lactamase SHV-1 (Escherichia coli, UniProt P0AD63); assay: Inhibition of Escherichia coli SHV1
T1 sequence (P0AD63 whole entry): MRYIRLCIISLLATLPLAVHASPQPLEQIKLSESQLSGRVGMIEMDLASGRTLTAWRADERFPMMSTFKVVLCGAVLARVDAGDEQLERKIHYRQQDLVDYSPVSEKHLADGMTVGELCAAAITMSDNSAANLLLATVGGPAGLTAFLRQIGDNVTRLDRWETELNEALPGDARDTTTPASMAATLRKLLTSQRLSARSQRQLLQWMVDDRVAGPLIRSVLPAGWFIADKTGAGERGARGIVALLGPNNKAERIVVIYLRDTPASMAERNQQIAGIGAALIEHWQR

Escherichia coli [7] = assay: Antimicrobial activity against Escherichia coli GC 2805 expressing CcrA in presence of 4 ug/mL piperacillin; type: functional
Beta-lactamase = Beta-lactamase (Enterobacter cloacae, UniProt P05364)
Description: Inhibition of Enterobacter cloacae AmpC

Serratia marcescens [8] = assay: Antimicrobial activity against Serratia marcescens GC 4142 expressing AmpC in presence of 4 ug/mL piperacillin; type: functional
Enterobacter cloacae [9] = assay: Antimicrobial activity against Enterobacter cloacae GC 1475 expressing P99 in presence of 4 ug/mL piperacillin; type: functional
Escherichia coli [10] = assay: Antimicrobial activity against Escherichia coli GC 2804 expressing Imp in presence of 4 ug/mL piperacillin; type: functional
Staphylococcus aureus = assay: Antimicrobial activity against Staphylococcus aureus GC 2216 in presence of 4 ug/mL piperacillin; type: functional
Escherichia coli [11] = assay: Antimicrobial activity against Escherichia coli GC 2844 in presence of 4 ug/mL piperacillin; type: functional
Serratia marcescens [12] = assay: Antimicrobial activity against Serratia marcescens GC 1781 expressing Sme1 and AmpC in presence of 4 ug/mL piperacillin; type: functional
[13] = Inhibition of Enterobacter cloacae class C beta lactamase GC1
Beta-lactamase TEM = Beta-lactamase TEM (Escherichia coli, UniProt P62593); assay: Inhibition of Escherichia coli TEM1
[14] = molecular target: Metallo-beta-lactamase type 2 (Bacteroides fragilis, UniProt P25910); assay: Inhibition of Bacteroides fragilis CcrA
Chain of Metallo-beta-lactamase type 2 (P25910 whole entry): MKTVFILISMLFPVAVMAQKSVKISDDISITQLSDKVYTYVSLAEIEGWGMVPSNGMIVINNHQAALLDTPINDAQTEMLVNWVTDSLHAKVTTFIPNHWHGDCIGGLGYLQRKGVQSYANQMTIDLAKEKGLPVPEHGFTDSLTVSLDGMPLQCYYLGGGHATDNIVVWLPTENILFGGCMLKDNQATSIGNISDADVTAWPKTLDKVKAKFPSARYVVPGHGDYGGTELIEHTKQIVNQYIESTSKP

Chain of Beta-lactamase TEM (P62593 whole entry): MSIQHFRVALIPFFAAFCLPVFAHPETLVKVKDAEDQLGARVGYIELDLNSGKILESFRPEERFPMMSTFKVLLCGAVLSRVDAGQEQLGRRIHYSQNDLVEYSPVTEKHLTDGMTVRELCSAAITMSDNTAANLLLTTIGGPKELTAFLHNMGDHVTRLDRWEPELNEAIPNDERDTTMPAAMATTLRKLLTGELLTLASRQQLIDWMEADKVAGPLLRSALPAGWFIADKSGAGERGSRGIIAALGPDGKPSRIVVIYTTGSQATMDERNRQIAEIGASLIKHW
Chain of Beta-lactamase (P05364 whole entry): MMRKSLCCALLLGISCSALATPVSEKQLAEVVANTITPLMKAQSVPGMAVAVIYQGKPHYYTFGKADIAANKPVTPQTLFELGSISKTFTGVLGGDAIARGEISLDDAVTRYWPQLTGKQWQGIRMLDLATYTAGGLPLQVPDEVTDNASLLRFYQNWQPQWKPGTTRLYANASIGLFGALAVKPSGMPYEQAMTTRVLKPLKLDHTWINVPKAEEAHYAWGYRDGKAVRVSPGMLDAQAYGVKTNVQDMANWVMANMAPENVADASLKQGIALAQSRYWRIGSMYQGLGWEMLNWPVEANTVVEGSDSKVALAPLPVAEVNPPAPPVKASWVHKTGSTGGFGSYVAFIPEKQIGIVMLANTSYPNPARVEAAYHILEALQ

| Compound | MIC (Enterobacter cloacae [1]) [µg/mL] | MIC (Escherichia coli [2]) [µg/mL] | MIC (Escherichia coli [3]) [µg/mL] | MIC (Escherichia coli [4]) [µg/mL] | MIC (Pseudomonas aeruginosa) [µg/mL] | MIC (Klebsiella pneumoniae) [µg/mL] | MIC (Escherichia coli [5]) [µg/mL] | MIC (Enterobacter cloacae [6]) [µg/mL] | pIC50 (Beta-lactamase SHV-1) | MIC (Escherichia coli [7]) [µg/mL] | pIC50 (Beta-lactamase) | MIC (Serratia marcescens [8]) [µg/mL] | MIC (Enterobacter cloacae [9]) [µg/mL] | MIC (Escherichia coli [10]) [µg/mL] | MIC (Staphylococcus aureus) [µg/mL] | MIC (Escherichia coli [11]) [µg/mL] | MIC (Serratia marcescens [12]) [µg/mL] | pIC50 [13] | pIC50 (Beta-lactamase TEM) | pIC50 [14] |
| --- | --- | --- | --- | --- | --- | --- | --- | --- | --- | --- | --- | --- | --- | --- | --- | --- | --- | --- | --- | --- |
| O=C([O-])C1=CS[C@@H]2/C(=C\c3cn4c5c(sc4n3)CCC5)C(=O)N12.[Na+] | 4 | 2 | 4 | 8 | 2 | 4 | 2 | 16 | 7.92 | > 64 | 8.70 | 2 | 16 | < 0.06 | 2 | 2 | 1 | 8.42 | – | – |
| Cc1ccc2c(c1)sc1nc(/C=C3/C(=O)N4C(C(=O)[O-])=CS[C@H]34)cn12.[Na+] | 8 | 1 | 4 | 16 | 16 | 8 | 2 | 32 | – | > 64 | 9.00 | 1 | 8 | < 0.06 | < 0.06 | 2 | 0.5 | – | 8.52 | 6.99 |
| O=C([O-])C1=CS[C@@H]2/C(=C\c3cn4c(n3)sc3ccccc34)C(=O)N12.[Na+] | 2 | 2 | 2 | 8 | 4 | 16 | 2 | 16 | – | > 64 | 9.00 | 1 | 8 | < 0.06 | < 0.06 | 2 | 0.5 | – | – | – |
| Cc1cccc2sc3nc(/C=C4/C(=O)N5C(C(=O)[O-])=CS[C@H]45)cn3c12.[Na+] | 16 | 2 | 8 | 16 | 2 | 16 | 2 | 32 | – | > 64 | 8.70 | 4 | 16 | < 0.06 | < 0.06 | 2 | 4 | – | 8.05 | 6.43 |
| O=C([O-])C1=CS[C@@H]2/C(=C\c3cn4c(n3)sc3cc(F)ccc34)C(=O)N12.[Na+] | 8 | 2 | 8 | 16 | 4 | 16 | 2 | 32 | – | > 64 | 8.70 | 2 | 16 | < 0.06 | < 0.06 | 2 | 2 | – | 8.10 | – |
| COc1ccc2c(c1)sc1nc(/C=C3/C(=O)N4C(C(=O)[O-])=CS[C@H]34)cn12.[Na+] | 16 | 1 | 16 | 8 | 32 | 64 | 2 | 64 | – | > 64 | 8.70 | 2 | 16 | < 0.06 | < 0.06 | 2 | 2 | – | – | – |
| O=C([O-])C1=CS[C@@H]2/C(=C\c3cn4c(n3)sc3cc(Cl)ccc34)C(=O)N12.[Na+] | 8 | 1 | 4 | 16 | 16 | 32 | 1 | 16 | – | > 64 | 8.52 | 2 | 8 | < 0.06 | < 0.06 | 2 | 1 | – | 8.22 | 7.13 |
| C[C@]1(Cn2ccnn2)[C@H](C(=O)[O-])N2C(=O)C[C@H]2S1(=O)=O.[Na+] [TAZOBACTAM SODIUM] | > 64 | > 64 | 2 | 2 | > 64 | > 64 | 4 | > 64 | – | > 64 | – | > 64 | > 64 | 0.12 | 64 | 2 | 1 | – | – | – |
